{
  "source": "patent EP2985032B1",
  "about": "“GLYX FOR USE IN THE TREATMENT OF ALZHEIMER'S DISEASE, PARKINSON'S DISEASE OR HUNTINGTON'S DISEASE” (Northwestern University, priority 2009, dated 2019)",
  "key": {"[1]": {"tested_on": "rats", "assay": "50-kHz ultrasonic vocalizations model of positive affect (rough-and-tumble play)", "format": "in vivo", "conditions": "Example 8; 10 mg/kg i.v., 10-15 min before test; FBNF1 rats; Mean ± SEM; P < .01", "description": "To evaluate the hedonic effect of GLYX-13 in this study, the 50-kHz ultrasonic vocalizations model of positive affect was examined in rats (see, Burgdorf, J., Panksepp, J., Brudzynski, S.M., Kroes, R.A. & Moskal, J.R. (2008). The effect of selective breeding for differential rates of 50-kHz ultrasonic vocalizations on emotional behavior in rats. Devel. Psychobiology, 51, 34-46.).\nAs a part of the study, two groups of three month old FBNF1 rats were used. The first group was composed of 13 rats and the second group was composed of 11 rats. The first group of rats was intravenously injected with 10mg/kg GLYX-13 and the second group of rats was intravenously injected with PBS vehicle (1 ml/kg) in a blind manner via chronic […] femoral vein access ports. Both groups of rats were injected 10 to 15 minutes before the start of test.\nFor hedonic ultrasonic vocalizations (USVs), animals received 2 minutes of heterospecific RTP habituation before the final 2 minutes test session."}, "[2]": {"tested_on": "rats", "assay": "Porsolt test (Forced Swim Test) of depression", "format": "in vivo", "parameters": "Mean Immobility Time: unit not given beside the values", "conditions": "for maximum reduction in floating compared to saline vehicle / Mean Immobility Time: Example 2; for maximum reduction in floating compared to saline vehicle: P < .01", "experimental": "For the evaluation of the antidepressant actions of GLYX-13, the effect of GLYX-13 in the Porsolt test of depression was examined in rats. Porsolt testing is the most commonly used test for assessment of depression in animal model. Porsolt testing, also known as Forced Swim Test, is based on a behavioral trait that is sensitive to changes in affective state. During this test, the animal is placed in a tank (18 cm diameter x 45 cm height) filled to 30 cm with 22-23°C water. After placing the animal in the tank, the amount of time for which the rat is immobile when it stops struggling is measured. Porsolt test is based on the fact that antidepressants increase the latency to immobility and decrease the time for which the rat is immobile. […] The interpretation of the Porsolt test is that the antidepressants reinstate active coping mechanisms and decrease the passive immobility evoked by stress.\nIn order to evaluate the effectiveness of GLYX-13 as antidepressant, three month old FBNF1 rats were separated into two groups of 9 animals. The first group of rats was intravenously injected with 10 mg/kg GLYX-13 and the second group of animals was intravenously injected with PBS vehicle (1 ml/kg) in a blind manner via chronic subdural femoral vein access ports. Both groups of animals were injected 10 to 15 minutes before the start of testing.\nFor Porsolt testing, animals were given a 15 minute pre-test habituation in the tank to induce learned helplessness on day one. Following this, on the subsequent day, the animals were injected with GLYX-13 or vehicle 10-15 minutes before being placed into the tank for a 5 minute test session. After placing the animals in the tank, the amount of time for which each animal is immobile when it stops struggling (Mean Immobility Time) was measured. Decrease in Mean Immobility Time is a measure of the effectiveness of the antidepressant.\nA second experiment was performed in the same manner as Example 1, except that 2-3 month Sprague-Dawley rats were used, and treated with either intravenous (1, 3, 10, 32 mg / kg), subcutaneous (1,3, 10, 32, 56, 100 mg / kg) injections of GLYX-13 or saline vehicle (1 mg / ml) 15 (i.v.) or 20 (s.c.) min before the start of the final 5 min test session. Ketamine (10 mg / kg i.p.) was given 60 min before the start of testing (Garcia et al., (2008) Prog Neuropsychopharmacol Biol Psychiatry, 32, 140-144). Subcutaneous administration of 10 mg/kg ketamine followed by testing after 20 min post dosing produced severe dissociative side effects, as shown in Figure 3.\nTo determine whether GLYX-13 acts in an area of the brain that is clinically relevant for depression, GLYX-13 was administered to either the medial prefrontal cortex (MPFC), which is associated with mood and depression, or to the motor cortex (Fig. 4). Mean time spent immobile in the Porsolt test was determined for groups of 10 three-month old male Fisher Brown Norway F1 (FBNF1) rats pretreated with a single injection of GLYX-13 (1, 10 ug / side) or a single saline vehicle injection (0.5 ul / 1 min) bilaterally into the medial prefrontal cortex or motor cortex (dorsal control) in animals with surgically implanted chronic indwelling cannulae aimed at the MPFC. Microinjections were made 1 week after surgery, and Porsolt testing was conducted 20 min post injection. Animals received a single 15 min training swim session one day before dosing.\nTo determine whether the antidepressant effect of GLYX-13 was specific to the sequence of the GLXY-13 peptide, mean time (sec) spent floating in the Porsolt test was determined in groups of 12 three-month old Sprague Dawley rats administered with GLYX-13 (TPPT-NH2; 3 mg / kg, i.v. tail vein), a scrambled peptide ([…]; 3 mg / kg i.v. tail vein), or 0.9% saline vehicle (1 ml / kg, i.v. tail vein). Administration occurred 60 min before the 5 min. testing session. Animals received a 15 min. training swim session one day before dosing. […]"}, "[3]": {"tested_on": "rat hippocampal organotypic cultures", "assay": "LTP / LTD in hippocampal organotypic cultures", "format": "cell-based", "conditions": "in vitro"}, "[4]": {"tested_on": "rats", "assay": "Open field test of anxiety", "format": "in vivo", "conditions": "for increase in the amount of time spent in the center of the field compared to vehicle: Example 6, P < .05", "experimental": "The purpose of this study was to evaluate action of GLYX-13 on anxiety. In order to gauge the effect of GLYX-13 in rats, the open field test of anxiety was conducted. The open field test is a widely used neophobic test of anxiety (see, Treit D, Fundytus M. Thigmotaxis as a test for anxiolytic activity in rats. Pharmachol Biochem Behav 1989;31:959-62.).\nThe open field area used for the open field test generally consists of an empty and bright square (or rectangular) arena, surrounded by walls. For the current study, an open field of 45 cm X 35 cm X 20 cm high was used. The rat was placed in the center of the arena and its behavior recorded over a predefined period of time (usually between 2 to 15 min). The open field test is based on the natural tendency of the rats to avoid open spaces. The open field test is based on the conflict between the innate anxiety that rats have of the central area of the open space versus their desire to explore new environments. When rats are in an anxious state, they have a natural tendency to stay near the walls. This natural tendency of the rats to stay close to the walls is called thigmotaxis. In this context, anxiety-related behavior is measured by the degree to which the rat avoids the center of the open field test. Determining the propensity of the rat to avoid the open field can be determined by measuring the number of center crosses made by the rats over a predefined interval of time, or by determining the amount of time the rat stays in the center of the field.\nIn order to evaluate the effectiveness of GLYX-13 as an anxiolytic, two groups of three month old FBNF1 rats were used. The first group was composed of 13 rats and the second group was composed of 11 rats. The first group of rats was intravenously injected with 10 mg/kg GLYX-13 and the second group of rats was intravenously injected with PBS vehicle (1 ml/kg) in a blind manner via chronic […] femoral vein access ports. Both groups of rats were injected 10 to 15 minutes before the start of testing. After GLYX-13 injections, both groups of rats were tested in the open field.\nFor the open field test, rats were habituated to the open field for 2 minutes each day for three consecutive days before the final 2 minute test session in which GLYX-13 or vehicle was administered. Open field activity was recorded by a video camera mounted above the open field area, and number of center crosses in the open field was measured.\nA second experiment was performed in the same manner as Example 3, except that groups of 8-10 two- to three-month old male Sprague-Dawley rats pretreated with either intravenous (1, 3, 10, 32 mg / kg), subcutaneous (1, 3, 10, 32, 56, 100 mg / kg) injections of GLYX-13, ketamine (10 mg/kg i.p.) or saline vehicle (1 mg / ml) 15 min (i.v.), 20 (s.c.) or 60 (i.p.) min before the start of the 5 min test session. Each data point represents a group of 8-10 rats. The average (mean) amount of time animals spent in the center of the field was measured.\nTo evaluate whether the anti-depressive and anxiolytic effects of GLYX-13 would persist beyond a few hours, rats were tested in the Porsot test and the Open Field test, described above. […] Mean (± SEM) time (sec.) spent floating in the Porsolt test, time spent in the center compartment (sec.), and line crosses in the open field test were determined."}, "[5]": {"tested_on": "rats", "assay": "Porsolt test (Forced Swim Test) of depression", "format": "in vivo", "parameters": "Mean Immobility Time: unit not given beside the values"}, "[6]": {"conditions": "Example 7, 3 mg / kg i.v., Sprague-Dawley rats"}},
  "note": "No end group written: not given here.",
  "data": [
    {"substance": "L-threonyl-L-prolyl-L-prolyl-L-threonine amide (TPPT-NH2) [GLYX-13, NMDAR glycine-site partial agonist]", "values": [
      {"measurement": "increase in rates of play-induced positive affective 50-kHz USVs compared to vehicle", "setting": "[1]", "result": "178.5 ± 48.3", "unit": "%"},
      {"measurement": "reduction in floating compared to PBS vehicle", "setting": "[2]; Example 1, 10 mg/kg i.v., 10-15 min before test, three month old FBNF1 rats, Mean ± SEM, P < .0001", "result": "56.4 ± 4.6", "unit": "%"},
      {"measurement": "maximum reduction in floating compared to saline vehicle", "setting": "[2]; administered intravenously, Sprague-Dawley rats, Mean ± SEM", "result": "50 ± 10", "unit": "%"},
      {"measurement": "maximum reduction in floating compared to saline vehicle", "setting": "[2]; administered subcutaneously, Sprague-Dawley rats, Mean ± SEM", "result": "43 ± 7", "unit": "%"},
      {"measurement": "Mean Immobility Time", "setting": "[2]; i.v., dose 3 (mg/kg), 15 min before test, Sprague-Dawley rats", "result": "66.14 ±27.53"},
      {"measurement": "Mean Immobility Time", "setting": "[2]; i.v., dose 10 (mg/kg), 15 min before test, Sprague-Dawley rats", "result": "60.6 ±14.7"},
      {"measurement": "Mean Immobility Time", "setting": "[2]; i.v., dose 32 (mg/kg), 15 min before test, Sprague-Dawley rats", "result": "87.19±17.85"},
      {"measurement": "Mean Immobility Time", "setting": "[2]; s.c., dose 1 (mg/kg), 20 min before test, Sprague-Dawley rats", "result": "135.5 ±22.0"},
      {"measurement": "Mean Immobility Time", "setting": "[2]; s.c., dose 3 (mg/kg), 20 min before test, Sprague-Dawley rats", "result": "100.2 ±15.7"},
      {"measurement": "Mean Immobility Time", "setting": "[2]; s.c., dose 10 (mg/kg), 20 min before test, Sprague-Dawley rats", "result": "76.9 ±9.7"},
      {"measurement": "Mean time spent immobile", "setting": "[2]; Example 3, MPFC injection, dose 1 (ug / side), FBNF1 rats, Mean ± SEM", "result": "53.46 ±10.65"},
      {"measurement": "Mean time spent immobile", "setting": "[2]; Example 3, MPFC injection, dose 10 (ug / side), FBNF1 rats, Mean ± SEM", "result": "62.54±8.7"},
      {"measurement": "reduction in floating compared to a saline control or to GLYX-13 injected into motor cortex", "setting": "[2]; Example 3, injected bilaterally into the MPFC, FBNF1 rats, 20 min post injection, Mean ± SEM", "result": "50 ± 5", "unit": "%"},
      {"measurement": "Mean time spent immobile", "setting": "[2]; Example 3, injected into motor cortex (dorsal control), FBNF1 rats, Mean ± SEM", "result": "113.7 ±13.1"},
      {"measurement": "reduction in mean floating time compared to saline injection or scrambled peptide", "setting": "[2]; Example 4, 3 mg / kg i.v. tail vein, 60 min before test, Sprague Dawley rats, Mean ± SEM", "result": "70 ± 5", "unit": "%"},
      {"measurement": "reduction in mean floating time compared to saline control", "setting": "[2]; Example 7, 3 mg / kg i.v., tested 96 hrs post dosing, Sprague-Dawley rats, mean ± SEM", "result": "82% ± 2"},
      {"measurement": "duration of antidepressant effects of a single administration", "setting": "[2]; [6]", "result": "up to 4 days"},
      {"measurement": "onset of action", "setting": "[2]; single dose, rats", "result": "within minutes"},
      {"measurement": "long-term depression (LTD)", "setting": "[3]", "result": "reducing"},
      {"measurement": "long-term potentiation (LTP)", "setting": "[3]", "result": "markedly elevate"},
      {"measurement": "increase in center crosses compared to vehicle", "setting": "[4]; Example 5, 10 mg/kg i.v., 10-15 min before test, FBNF1 rats, Mean ± SEM, P < .005", "result": "172.6 ± 34.3", "unit": "%"},
      {"measurement": "increase in the amount of time spent in the center of the field compared to vehicle", "setting": "[4]; intravenous administration, 15 min before test, Sprague-Dawley rats, Mean ± SEM", "result": "42± 5", "unit": "%"},
      {"measurement": "increase in the amount of time spent in the center of the field compared to vehicle", "setting": "[4]; subcutaneous administration, 20 min before test, Sprague-Dawley rats, Mean ± SEM", "result": "36 ± 5", "unit": "%"},
      {"measurement": "increase in mean center time compared to saline control", "setting": "[4]; Example 7, 3 mg / kg i.v., tested 120 hrs post dosing, Sprague-Dawley rats, mean ± SEM", "result": "125% ± 5"},
      {"measurement": "duration of anxiolytic effects of a single administration", "setting": "[4]; [6]", "result": "up to 5 days"},
      {"measurement": "Mean Immobility Time", "setting": "[5]; Example 2, i.v., dose printed as 2, 15 min before test, Sprague-Dawley rats", "result": "84.9 ±15.0"},
      {"measurement": "Mean time spent immobile", "setting": "[5]; Example 3, MPFC injection, dose 0.1 (ug / side), FBNF1 rats, Mean ± SEM", "result": "108.77 ±12.34"}
    ]}
  ]
}
